One series relates to HEK293. Put plainly: Cytotoxicity against human HEK293 cells reduction in cell viability at 74 ug/ml incubated for 24 hrs by resazurin cell viability assay. Conditions: hek293, 24 h, at 74 µg/mL. It counts as toxicity, cell-based.
For series [1], the system named is Staphylococcus aureus. Put plainly: Inhibition of protein synthesis in Staphylococcus aureus ATCC 29213 at 8 times MIC preincubated for 30 mins followed by [3H]-leucine and measured after 40 mins by [3H]-leucine incorporation based beta scintillation counter analysis. It counts as functional. Conditions: time 70.0 min.
The subject of series [2] is Staphylococcus aureus. Put plainly: Inhibition of DNA synthesis in Staphylococcus aureus ATCC 29213 at 8 times MIC preincubated for 30 mins followed by [3H]-thymidine and measured after 30 mins by [3H]-thymidine incorporation based beta scintillation counter analysis. Conditions: time 60 min; 1 h. It counts as functional. For orientation: Uptake of a labelled nucleoside into DNA is a usual measure of proliferation.

Series [3] relates to Staphylococcus aureus. Put plainly: Antibacterial activity against antibiotic resistant Staphylococcus aureus ATCC 700699 assessed as inhibition of bacterial growth by CLSI protocol based broth microdilution method. It counts as functional. For orientation: Broth dilution looks for growth in wells or tubes with falling amounts of substance.
For series [4], the system named is Enterococcus faecium. Nature of the series: Antibacterial activity against Enterococcus faecium clinical isolate 1091282 assessed as inhibition of bacterial growth by CLSI protocol based broth microdilution method. It counts as functional.
The subject of series [5] is Staphylococcus aureus. Nature of the series: Antibacterial activity against antibiotic susceptible Staphylococcus aureus ATCC 25923 assessed as inhibition of bacterial growth by CLSI protocol based broth microdilution method. It counts as functional.
The test system of series [6] is Staphylococcus epidermidis. Put plainly: Antibacterial activity against antibiotic resistant Staphylococcus epidermidis ATCC 700296 assessed as inhibition of bacterial growth by CLSI protocol based broth microdilution method. It counts as functional.
Series [7] concerns Enterococcus faecium. Nature of the series: Antibacterial activity against vancomycin resistant Enterococcus faecium ATCC 700221 assessed as inhibition of bacterial growth by CLSI protocol based broth microdilution method. It is filed as functional.
Series [8] has as its system Enterococcus faecalis. Nature of the series: Anti-biofilm activity against Enterococcus faecalis ATCC 29212 assessed as eradication of biofilm formation incubated for 24 hrs by Calgary biofilm device assay. It counts as functional.
For series [9], the system named is Staphylococcus aureus. Put plainly: Antibacterial activity against Staphylococcus aureus ATCC 25923 assessed as minimum bactericidal concentration incubated for 24 hrs by Calgary biofilm device assay. Conditions: ATCC 25923, 24 h.
In series [10] the test system is Enterococcus faecium. Nature of the series: Antibacterial activity against Enterococcus faecium clinical isolate 1089544 assessed as inhibition of bacterial growth by CLSI protocol based broth microdilution method. It counts as functional.
Series [11] concerns Enterococcus faecalis. Put plainly: Antibacterial activity against Enterococcus faecalis clinical isolate 1094112 assessed as inhibition of bacterial growth by CLSI protocol based broth microdilution method. It is filed as functional.
For series [12], the system named is Enterococcus faecalis. Nature of the series: Antibacterial activity against Enterococcus faecalis clinical isolate 1100440 assessed as inhibition of bacterial growth by CLSI protocol based broth microdilution method. It is filed as functional.
The test system of series [13] is Enterococcus faecalis. Put plainly: Antibacterial activity against antibiotic susceptible Enterococcus faecalis ATCC 29212 assessed as inhibition of bacterial growth by CLSI protocol based broth microdilution method. It counts as functional.
The next series relates to Bacillus subtilis. Nature of the series: Antibacterial activity against antibiotic resistant Bacillus subtilis ATCC 6623 assessed as inhibition of bacterial growth by CLSI protocol based broth microdilution method. It is filed as functional.
For series [14], the system named is Enterococcus faecium. Nature of the series: Antibacterial activity against Enterococcus faecium clinical isolate 1088168 assessed as inhibition of bacterial growth by CLSI protocol based broth microdilution method. It counts as functional.
In series [15] the test system is Enterococcus faecalis. Put plainly: Antibacterial activity against Enterococcus faecalis clinical isolate 1091720 assessed as inhibition of bacterial growth by CLSI protocol based broth microdilution method. It is filed as functional.
Series [16] deals with Enterococcus faecium. Put plainly: Antibacterial activity against Enterococcus faecium clinical isolate 1088925 assessed as inhibition of bacterial growth by CLSI protocol based broth microdilution method. It is filed as functional.
Series [17] concerns Staphylococcus aureus. Nature of the series: Anti-biofilm activity against Staphylococcus aureus ATCC 25923 assessed as eradication of biofilm formation incubated for 24 hrs by Calgary biofilm device assay. It counts as functional. Conditions: Staphylococcus aureus, ATCC 25923.
For series [18], the system named is Enterococcus faecalis. Nature of the series: Antibacterial activity against Enterococcus faecalis clinical isolate 1091563 assessed as inhibition of bacterial growth by CLSI protocol based broth microdilution method. It is filed as functional.
Series [19] has as its system Enterococcus faecalis. Put plainly: Anti-biofilm activity against Enterococcus faecalis ATCC 29212 assessed as minimum bactericidal concentration incubated for 24 hrs by Calgary biofilm device assay. Conditions: ATCC 29212, 24 h.
Series [20] has as its system Staphylococcus aureus. Nature of the series: Antibacterial activity against antibiotic resistant Staphylococcus aureus BAA-2312 assessed as inhibition of bacterial growth by CLSI protocol based broth microdilution method. It counts as functional.
The subject of series [21] is Staphylococcus aureus. Nature of the series: Bactericidal activity against Staphylococcus aureus ATCC 700699 assessed as bacteria elimination at 4 times MIC and measured after 10 hrs by time-kill assay. It counts as functional, organism-based.
Series [22] relates to Enterococcus faecalis. Put plainly: Antibacterial activity against Enterococcus faecalis clinical isolate 1088051 assessed as inhibition of bacterial growth by CLSI protocol based broth microdilution method. It counts as functional.
Series [23] relates to Enterococcus faecium. Put plainly: Antibacterial activity against Enterococcus faecium clinical isolate 1088228 assessed as inhibition of bacterial growth by CLSI protocol based broth microdilution method. It is filed as functional.
For series [24], the system named is Staphylococcus aureus. Put plainly: Antibacterial activity against Staphylococcus aureus clinical isolate 1088105 assessed as inhibition of bacterial growth by CLSI protocol based broth microdilution method. It counts as functional.
Series [25] relates to Staphylococcus aureus. Put plainly: Antibacterial activity against Staphylococcus aureus clinical isolate 1089106 assessed as inhibition of bacterial growth by CLSI protocol based broth microdilution method. It is filed as functional.
Series [26] relates to Staphylococcus aureus. Put plainly: Antibacterial activity against Staphylococcus aureus clinical isolate 1088888 assessed as inhibition of bacterial growth by CLSI protocol based broth microdilution method. It is filed as functional.
Series [27] has as its system Staphylococcus aureus. Put plainly: Antibacterial activity against Staphylococcus aureus clinical isolate 1088064 assessed as inhibition of bacterial growth by CLSI protocol based broth microdilution method. It is filed as functional.
Series [28] concerns Staphylococcus aureus. Nature of the series: Antibacterial activity against Staphylococcus aureus clinical isolate 1088610 assessed as inhibition of bacterial growth by CLSI protocol based broth microdilution method. It counts as functional.
Series [29] has as its system Staphylococcus aureus. Nature of the series: Antibacterial activity against Staphylococcus aureus clinical isolate 1088626 assessed as inhibition of bacterial growth by CLSI protocol based broth microdilution method. It counts as functional.
Series [30] relates to Staphylococcus aureus. Nature of the series: Antibacterial activity against Staphylococcus aureus clinical isolate 1088060 assessed as inhibition of bacterial growth by CLSI protocol based broth microdilution method. It counts as functional.

Converted amounts (≈) assume the structure as drawn. The source made the active and inactive calls. The rule behind the calls is not given here.

As for `CC/C(=C(\c1ccccc1)c1ccc(OCCN(C)C)cc1)c1ccccc1` [TAMOXIFEN], the Activity in the series on HEK293 is 100%.
As a reminder, the inhibition is the share of the control response that was lost under treatment. Low readings indicate a response near the control, high ones a response far below the control. Take `CC(=O)NC[C@H]1CN(c2ccc(N3CCOCC3)c(F)c2)C(=O)O1`: the inhibition in the series with Staphylococcus aureus [1] worked out at 70.7%.
For `O=C(O)c1cn(C2CC2)c2cc(N3CCNCC3)c(F)cc2c1=O` [CIPROFLOXACIN], the “inhibition (INH)” value in the series with Staphylococcus aureus [2] came to 86.2%.
For orientation: MIC means the lowest concentration that inhibits growth of the organism. Turning to `CN[C@H](CC(C)C)C(=O)N[C@H]1C(=O)N[C@@H](CC(N)=O)C(=O)N[C@H]2C(=O)N[C@H]3C(=O)N[C@H](C(=O)N[C@H](C(=O)O)c4cc(O)cc(O)c4-c4cc3ccc4O)[C@H](O)c3ccc(c(Cl)c3)Oc3cc2cc(c3O[C@@H]2O[C@H](CO)[C@@H](O)[C@H](O)[C@H]2O[C@H]2C[C@](C)(N)[C@H](O)[C@H](C)O2)Oc2ccc(cc2Cl)[C@H]1O` [VANCOMYCIN], the MIC was 3.12 µg/mL (≈ 2.15 µM) in the series on Staphylococcus aureus [3]; more than 32 µg/mL in the series on Enterococcus faecium [4]; 0.78 µg/mL (≈ 0.538 µM) with Staphylococcus aureus [5]; 3.12 µg/mL (≈ 2.15 µM) in series [6]; more than 50 µg/mL in the series with Enterococcus faecium [7]; more than 32 µg/mL in the series with Enterococcus faecium [10]. Moreover, the MIC with Enterococcus faecalis [11] is more than 32 µg/mL; in the series with Enterococcus faecalis [12], more than 32 µg/mL; in the series with Enterococcus faecalis [13], 3.12 µg/mL (≈ 2.15 µM); in the series on Bacillus subtilis it was 0.39 µg/mL (≈ 0.269 µM); in the series on Enterococcus faecium [14], more than 32 µg/mL; in the series with Enterococcus faecalis [15], more than 32 µg/mL. The MIC in the series on Enterococcus faecium [16] was more than 32 µg/mL; with Enterococcus faecalis [18] it was more than 32 µg/mL; in the series with Staphylococcus aureus [20] it was 0.78 µg/mL (≈ 0.538 µM); in the series with Enterococcus faecalis [22], more than 32 µg/mL; in the series on Enterococcus faecium [23], more than 32 µg/mL. Also, the MBEC with Enterococcus faecalis [8] and in the series on Staphylococcus aureus [17] was more than 50 µg/mL throughout. The values for the MBC in the series with Staphylococcus aureus [9] and with Enterococcus faecalis [19] were 6.25 µg/mL (≈ 4.31 µM) and 25 µg/mL (≈ 17.3 µM), respectively. For the same compound, the outcome in the series on Staphylococcus aureus [21] was Active.
Consider `C[C@@H](O)[C@H]1C(=O)N2C(C(=O)O)=C(S[C@@H]3CN[C@H](C(=O)N(C)C)C3)[C@H](C)[C@H]12` [MEROPENEM], for which the MIC was more than 128 µg/mL in the series with Enterococcus faecium [4]; 0.12 µg/mL (≈ 0.313 µM) in the series on Staphylococcus aureus [24]; more than 128 µg/mL in the series on Enterococcus faecium [10]; 8 µg/mL (≈ 20.9 µM) with Enterococcus faecalis [11]; 2 µg/mL (≈ 5.22 µM) with Staphylococcus aureus [25]; 8 µg/mL (≈ 20.9 µM) in the series on Staphylococcus aureus [26]. In addition, the MIC with Enterococcus faecalis [12] was 4 µg/mL (≈ 10.4 µM); in the series with Enterococcus faecium [14], more than 128 µg/mL; in the series on Enterococcus faecalis [15], 8 µg/mL (≈ 20.9 µM); with Enterococcus faecium [16], more than 128 µg/mL; with Staphylococcus aureus [27], 4 µg/mL (≈ 10.4 µM); in the series on Enterococcus faecalis [18], 2 µg/mL (≈ 5.22 µM). Besides, the minimum inhibitory concentration (MIC) with Staphylococcus aureus [28] was 4 µg/mL (≈ 10.4 µM); in the series with Staphylococcus aureus [29], 0.06 µg/mL (≈ 0.156 µM); with Enterococcus faecalis [22] it was 2 µg/mL (≈ 5.22 µM); in the series with Staphylococcus aureus [30], 0.06 µg/mL (≈ 0.156 µM); with Enterococcus faecium [23], more than 128 µg/mL.

The values above are taken from ChEMBL document CHEMBL5107949, “Design, synthesis, and antibacterial activity of N-(trifluoromethyl)phenyl substituted pyrazole derivatives” (RSC Med Chem, 2021).
